Assays:
[1] = biological target: T1, Histone acetyltransferase p300 (Homo sapiens, UniProt Q09472); test: Inhibition of recombinant human full length EP300 assessed as inhibition of H4 peptide acetylation using biotinylated H4 peptide as substrate in presence of Acetyl-CoA incubated for 60 mins by TR-FRET assay
[2] = biological target: T1, Histone acetyltransferase p300; test: Inhibition of EP300 in human LK2 cells assessed as reduction in intracellular H3K27 acetylation incubated for 3 hrs by chemiluminescence based ELISA; type: cell-based
[3] = 1-Octanol/PBS partition coefficient, logD of the compound at pH 7.4 incubated for 30 mins by shake flask technique based HPLC-LC/MS analysis; type: physicochemical
[4] = Metabolic stability in human liver microsomes assessed as intrinsic clearance at 1 uM; type: ADME, Microsome
[5] = Metabolic stability in mouse liver microsomes assessed as intrinsic clearance at 1 uM; type: ADME, Microsome
[6] = AUC in BALB/cAnNCrlCrlj mouse at 10 mg/kg,po; type: ADME, organism-based; design: dose 10 mg/kg, route po; conditions: in vivo
[7] = Half life in BALB/cAnNCrlCrlj mouse at 10 mg/kg,po; type: ADME, organism-based; conditions: in vivo
[8] = Cmax in BALB/cAnNCrlCrlj mouse at 10 mg/kg,po; type: ADME, organism-based; design: dose 10 mg/kg, route po; conditions: in vivo
[9] = Unbound AUC in BALB/cAnNCrlCrlj mouse at 10 mg/kg,po; type: ADME, organism-based; conditions: in vivo
[10] = Unbound clearance in BALB/cAnNCrlCrlj mouse at 1 mg/kg,iv administered as DMS0/10% SBE-7-betaCD (1:9 ratio) solution; type: ADME, organism-based; conditions: in vivo
[11] = Volume of distribution at steady state in BALB/cAnNCrlCrlj mouse at 1 mg/kg,iv administered as DMS0/10% SBE-7-betaCD (1:9 ratio) solution; type: ADME, organism-based; conditions: in vivo, read-out: Vdss
[12] = Oral bioavailability in BALB/cAnNCrlCrlj mouse at 10 mg/kg; type: ADME, organism-based; conditions: in vivo; for F: po, 10 mg/kg
[13] = Clearance in BALB/cAnNCrlCrlj mouse at 1 mg/kg,iv administered as DMA/Tween80/saline (1:1:8 ratio) solution; type: ADME, organism-based; conditions: in vivo
[14] = Unbound clearance in BALB/cAnNCrlCrlj mouse at 1 mg/kg,iv administered as DMA/Tween80/saline (1:1:8 ratio) solution; type: ADME, organism-based; conditions: in vivo
[15] = Volume of distribution at steady state in BALB/cAnNCrlCrlj mouse at 1 mg/kg,iv administered as DMA/Tween80/saline (1:1:8 ratio) solution; type: ADME, organism-based; conditions: in vivo, read-out: Vdss
[16] = Unbound clearance in BALB/cAnNCrlCrlj mouse at 2 mg/kg,iv administered as DMA/Tween80/saline (1:1:8 ratio) solution; type: ADME, organism-based; conditions: in vivo
[17] = Volume of distribution at steady state in BALB/cAnNCrlCrlj mouse at 2 mg/kg,iv administered as DMA/Tween80/saline (1:1:8 ratio) solution; type: ADME, organism-based; conditions: in vivo, read-out: Vdss
[18] = BALB/cAnNCrlCrlj, read-out: AUC

T1 sequence (Q09472 whole entry): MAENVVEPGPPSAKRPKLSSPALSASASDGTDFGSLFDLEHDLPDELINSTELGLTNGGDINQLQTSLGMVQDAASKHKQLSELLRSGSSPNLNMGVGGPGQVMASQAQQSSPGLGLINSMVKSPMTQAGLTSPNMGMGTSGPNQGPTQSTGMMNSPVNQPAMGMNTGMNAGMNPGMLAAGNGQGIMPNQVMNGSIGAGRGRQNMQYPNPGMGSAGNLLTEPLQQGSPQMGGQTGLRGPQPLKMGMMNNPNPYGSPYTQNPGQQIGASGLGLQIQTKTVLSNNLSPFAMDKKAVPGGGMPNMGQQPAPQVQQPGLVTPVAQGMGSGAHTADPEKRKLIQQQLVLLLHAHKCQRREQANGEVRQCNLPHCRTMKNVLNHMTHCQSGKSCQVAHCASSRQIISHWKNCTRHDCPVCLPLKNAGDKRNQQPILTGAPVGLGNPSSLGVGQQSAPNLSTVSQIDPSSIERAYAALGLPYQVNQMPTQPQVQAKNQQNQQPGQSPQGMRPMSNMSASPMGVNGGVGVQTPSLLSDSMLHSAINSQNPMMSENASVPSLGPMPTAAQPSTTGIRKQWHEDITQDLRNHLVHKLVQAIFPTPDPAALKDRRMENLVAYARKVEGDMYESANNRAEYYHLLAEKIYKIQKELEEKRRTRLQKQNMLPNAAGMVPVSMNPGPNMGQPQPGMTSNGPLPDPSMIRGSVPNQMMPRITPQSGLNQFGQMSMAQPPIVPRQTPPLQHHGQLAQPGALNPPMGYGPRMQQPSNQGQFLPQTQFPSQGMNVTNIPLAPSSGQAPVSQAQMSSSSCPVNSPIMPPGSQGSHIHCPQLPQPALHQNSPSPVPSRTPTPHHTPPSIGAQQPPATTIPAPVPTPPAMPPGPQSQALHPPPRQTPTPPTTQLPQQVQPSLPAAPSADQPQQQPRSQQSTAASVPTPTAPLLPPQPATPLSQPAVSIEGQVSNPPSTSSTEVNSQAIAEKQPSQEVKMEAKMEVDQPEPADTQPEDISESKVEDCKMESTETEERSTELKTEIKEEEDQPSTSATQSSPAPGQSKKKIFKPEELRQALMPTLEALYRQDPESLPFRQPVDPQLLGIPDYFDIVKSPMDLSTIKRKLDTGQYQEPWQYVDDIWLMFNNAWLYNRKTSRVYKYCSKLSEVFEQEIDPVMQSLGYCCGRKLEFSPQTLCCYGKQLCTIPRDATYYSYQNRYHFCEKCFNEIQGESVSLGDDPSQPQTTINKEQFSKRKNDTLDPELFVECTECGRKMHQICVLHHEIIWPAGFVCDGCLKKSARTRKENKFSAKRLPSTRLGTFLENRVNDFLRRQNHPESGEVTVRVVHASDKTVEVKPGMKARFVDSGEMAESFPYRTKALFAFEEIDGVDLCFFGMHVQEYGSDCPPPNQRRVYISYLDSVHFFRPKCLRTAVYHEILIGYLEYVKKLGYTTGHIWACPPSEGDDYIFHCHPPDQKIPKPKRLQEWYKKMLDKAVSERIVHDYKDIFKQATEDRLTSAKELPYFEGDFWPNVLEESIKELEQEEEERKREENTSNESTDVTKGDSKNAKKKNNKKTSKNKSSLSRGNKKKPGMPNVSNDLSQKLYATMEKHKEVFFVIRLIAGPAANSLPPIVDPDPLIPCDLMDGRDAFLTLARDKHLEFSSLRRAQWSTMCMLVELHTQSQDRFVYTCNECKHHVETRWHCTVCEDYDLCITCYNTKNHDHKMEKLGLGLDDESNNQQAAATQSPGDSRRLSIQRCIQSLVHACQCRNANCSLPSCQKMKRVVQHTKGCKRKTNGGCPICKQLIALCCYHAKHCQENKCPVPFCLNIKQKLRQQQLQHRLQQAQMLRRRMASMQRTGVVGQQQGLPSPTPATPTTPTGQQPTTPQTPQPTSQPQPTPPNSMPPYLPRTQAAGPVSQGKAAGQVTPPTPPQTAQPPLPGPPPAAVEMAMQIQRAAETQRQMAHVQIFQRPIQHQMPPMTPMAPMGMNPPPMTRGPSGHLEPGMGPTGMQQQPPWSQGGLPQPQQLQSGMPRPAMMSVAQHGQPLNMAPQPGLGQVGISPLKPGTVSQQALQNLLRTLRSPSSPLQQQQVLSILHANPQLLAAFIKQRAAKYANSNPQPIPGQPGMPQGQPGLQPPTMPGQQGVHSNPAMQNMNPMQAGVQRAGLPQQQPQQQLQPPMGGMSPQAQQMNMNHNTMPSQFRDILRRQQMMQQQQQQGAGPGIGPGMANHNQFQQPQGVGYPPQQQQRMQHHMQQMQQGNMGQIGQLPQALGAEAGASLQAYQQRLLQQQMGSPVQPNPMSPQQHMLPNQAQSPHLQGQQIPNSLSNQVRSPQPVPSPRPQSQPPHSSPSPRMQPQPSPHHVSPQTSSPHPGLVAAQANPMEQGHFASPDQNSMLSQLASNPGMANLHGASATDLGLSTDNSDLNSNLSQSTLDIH

IC50 [2] | logD at 0.5 h [3] | intrinsic clearance [4] | intrinsic clearance (CLint) [5] | half-life [7] | Cmax [8] | Compound | further results
0.052 µM |  |  |  |  |  | COc1ccc(C2(C(=O)N3CCC[C@@H]3C(=O)Nc3ccc4[nH]ncc4n3)CCCC2)cc1 | IC50 [1]: 0.024 µM
0.021 µM | 3.4 | 150 µL/min/mg | 380 µL/min/mg |  |  | O=C(Nc1ccc2[nH]ncc2n1)[C@H]1C[C@@H](F)CN1C(=O)C1(c2ccc(C(=O)C(F)(F)F)cc2)CCCCC1 | 
0.013 µM | 2.7 | 140 µL/min/mg |  | 2.8 h | 0.34 µM | O=C(Nc1ccc2[nH]ncc2n1)[C@H]1C[C@@H](F)CN1C(=O)C1(c2ccc(O)cc2)CCCCC1 | AUC [6, 18]: 870 nM·h
0.077 µM | 1.9 | 10 µL/min/mg | 380 µL/min/mg |  |  | COc1ccc(C(C)(C)C(=O)N2C[C@H](F)C[C@@H]2C(=O)Nc2ccc3[nH]ncc3n2)cc1 | 
0.053 µM | 3.1 | 100 µL/min/mg | 240 µL/min/mg |  |  | COc1ccc(C2(C(=O)N3C[C@H](F)C[C@@H]3C(=O)Nc3ccc4[nH]ncc4n3)CC(C)(C)C2)cc1 | 
 |  |  |  | 0.6 h | 0.32 µM | COc1ccc(C2(C(=O)N3CCC[C@@H]3C(=O)Nc3cccc4[nH]ncc34)CCCC2)cc1 | AUC [6, 18]: 420 nM·h; fAUC [9]: 29 nM·h
0.106 µM |  |  |  |  |  | COc1ccc(C2(C(=O)N3C[C@H](O)C[C@@H]3C(=O)Nc3ccc4[nH]ncc4n3)CCCCC2)cc1 | IC50 [1]: 0.05 µM
0.02 µM | 2.1 | 40 µL/min/mg | 120 µL/min/mg | 2.1 h | 1.61 µM | COc1ccc(C2(C(=O)N3C[C@H](F)C[C@@H]3C(=O)Nc3ccc4[nH]ncc4n3)CC(F)(F)C2)cc1 | AUC [6, 18]: 2290 nM·h; fAUC [9]: 268 nM·h
 | 3.1 | 310 µL/min/mg | 770 µL/min/mg | 1.4 h | 10.8 µM | COc1ccc(C2(C(=O)N3C[C@H](F)C[C@@H]3C(=O)Nc3ccc4[nH]ncc4n3)CCCCC2)cc1 | CL free [10]: 7.98 L/h/kg; AUC [6]: 15000 nM·h; fAUC [9]: 600 nM·h; Vd [11]: 0.29 L/kg; F [12]: 2.2%
0.709 µM |  |  |  |  |  | COc1ccc(C2(C(=O)N3CCC[C@@H]3C(=O)Nc3ccc4[nH]ccc4c3)CCCC2)cc1 | 
0.027 µM |  |  |  |  |  | COc1ccc(C2(C(=O)N3CS(=O)(=O)C[C@@H]3C(=O)Nc3ccc4[nH]ncc4n3)CCCCC2)cc1 | 
0.016 µM | 3.1 | 230 µL/min/mg | 400 µL/min/mg | 1.2 h | 12.7 µM | COc1ccc(C2(C(=O)N3C[C@H](F)C[C@@H]3C(=O)Nc3ccc4[nH]ncc4n3)CCCCC2)cc1F | clearance [13]: 0.378 L/h/kg; AUC [6, 18]: 16800 nM·h; CL free [14]: 4.56 L/h/kg; fAUC [9]: 1390 nM·h; bioavailability ([12]; BALB/cAnNCrlCrlj): 62%; Vd [15]: 0.15 L/kg
0.015 µM | 2.3 | 110 µL/min/mg | 160 µL/min/mg |  |  | COc1ccc(C2(C(=O)N3C[C@H](F)C[C@@H]3C(=O)Nc3ccc4[nH]ncc4n3)CCCCC2)cn1 | 
0.142 µM | 3.2 | 60 µL/min/mg |  |  |  | COc1c(F)cc(C2(C(=O)N3C[C@H](F)C[C@@H]3C(=O)Nc3ccc4[nH]ncc4n3)CCC(F)(F)CC2)cc1F | 
2.79 µM |  |  |  |  |  | COc1ccc(C2(C(=O)N3CCC[C@@H]3C(=O)Nc3ccc4cn[nH]c4c3)CCCC2)cc1 | IC50 [1]: 0.5 µM
0.057 µM | 3 | 40 µL/min/mg |  |  |  | COc1ccc(C2(C(=O)N3C[C@H](F)C[C@@H]3C(=O)Nc3ccc4[nH]ncc4n3)CCC(F)(F)CC2)cc1F | IC50 [1]: 0.036 µM
0.095 µM | 1.6 |  |  | 1.5 h | 0.09 µM | CS(=O)(=O)c1ccc(C2(C(=O)N3C[C@H](F)C[C@@H]3C(=O)Nc3ccc4[nH]ncc4n3)CCC(F)(F)CC2)cc1 | AUC [6, 18]: 230 nM·h; IC50 [1]: 0.055 µM
0.101 µM | 1.6 | 10 µL/min/mg | 50 µL/min/mg |  |  | COc1ccc(C2(C(=O)N3C[C@H](F)C[C@@H]3C(=O)Nc3ccc4[nH]ncc4n3)CCOCC2)cc1 | 
0.916 µM |  |  |  |  |  | COc1ccc(C2(C(=O)N3CCC[C@@H]3C(=O)Nc3ccc4[nH]ncc4c3)CCCC2)cc1 | 
 |  |  |  | 2 h | 0.08 µM | COc1ccc(C2(C(=O)N3CCOCC(Cc4cccc5[nH]ncc45)C3)CCCC2)cc1 (stereo not given) | AUC [6]: 100 nM·h; fAUC [9]: 6 nM·h; CL free [16]: 104.4 L/h/kg; Vd [17]: 1.76 L/kg; F [12]: 31%
0.304 µM |  |  |  |  |  | COc1ccc(C2(C(=O)N3CCC[C@@H]3C(=O)Nc3cccc4[nH]ccc34)CCCC2)cc1 | 
